Patent US20170087174A1, “COMBINATION THERAPY REGIMEN FOR TREATMENT OF HCV” (JANSSEN PHARMACEUTICALS, INC., priority 2015, published 2017)
“Also recorded” adds a separate entry of the source. Read-outs that look alike come from different tables or passages of the source.

Columns and labels:
[1] = target: T1, BCRP (Homo sapiens, UniProt Q9UNQ0); details: in vitro; cited from earlier work
T1 sequence (Q9UNQ0 1-655): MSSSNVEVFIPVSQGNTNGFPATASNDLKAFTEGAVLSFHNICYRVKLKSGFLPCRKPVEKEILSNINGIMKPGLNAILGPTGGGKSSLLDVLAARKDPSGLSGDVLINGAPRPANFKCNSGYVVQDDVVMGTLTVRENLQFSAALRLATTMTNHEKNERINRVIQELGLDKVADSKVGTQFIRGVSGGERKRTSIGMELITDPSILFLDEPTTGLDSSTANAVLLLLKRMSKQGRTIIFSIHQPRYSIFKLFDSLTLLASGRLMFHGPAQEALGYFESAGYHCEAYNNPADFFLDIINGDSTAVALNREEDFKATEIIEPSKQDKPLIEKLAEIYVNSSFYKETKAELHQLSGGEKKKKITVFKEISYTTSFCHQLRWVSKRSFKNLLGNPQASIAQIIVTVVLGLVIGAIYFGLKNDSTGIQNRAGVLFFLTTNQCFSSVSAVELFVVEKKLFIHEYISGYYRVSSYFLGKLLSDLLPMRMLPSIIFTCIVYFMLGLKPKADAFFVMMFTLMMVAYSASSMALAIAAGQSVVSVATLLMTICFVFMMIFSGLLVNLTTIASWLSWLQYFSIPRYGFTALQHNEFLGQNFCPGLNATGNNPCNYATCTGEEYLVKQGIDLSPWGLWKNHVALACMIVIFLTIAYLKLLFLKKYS

[2] = target: T2, OATP1B1 (Homo sapiens, UniProt Q9Y6L6); details: in vitro; cited from earlier work
T2 sequence (Q9Y6L6 1-691): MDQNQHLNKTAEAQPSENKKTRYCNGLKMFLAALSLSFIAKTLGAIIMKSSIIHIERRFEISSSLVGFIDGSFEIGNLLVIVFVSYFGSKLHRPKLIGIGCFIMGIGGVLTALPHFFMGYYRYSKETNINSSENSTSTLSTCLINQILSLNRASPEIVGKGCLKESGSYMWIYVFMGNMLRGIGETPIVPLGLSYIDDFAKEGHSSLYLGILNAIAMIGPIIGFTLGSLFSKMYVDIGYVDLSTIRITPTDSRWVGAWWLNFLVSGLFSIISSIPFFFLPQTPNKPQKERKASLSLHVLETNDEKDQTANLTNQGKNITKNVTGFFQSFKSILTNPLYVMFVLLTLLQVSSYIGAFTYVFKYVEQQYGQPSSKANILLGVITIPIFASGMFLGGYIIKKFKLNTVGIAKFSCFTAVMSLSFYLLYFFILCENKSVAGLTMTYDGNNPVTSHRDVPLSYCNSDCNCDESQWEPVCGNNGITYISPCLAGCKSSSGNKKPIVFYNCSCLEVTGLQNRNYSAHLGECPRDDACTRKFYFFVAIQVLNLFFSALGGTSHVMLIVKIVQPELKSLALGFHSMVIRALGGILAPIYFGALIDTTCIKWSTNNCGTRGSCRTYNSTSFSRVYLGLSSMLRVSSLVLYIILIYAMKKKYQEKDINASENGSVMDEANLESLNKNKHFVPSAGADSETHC

[3] = PK of single agents vs fixed dose combinations (FDC), single oral dose in healthy volunteers; assay type: in vivo, human; details: for Cmax / AUC(0-t) / AUC(0-inf) / Tmax: human, plasma, oral; for Cmax: read-out: Cmax (mean ± SD); for AUC(0-t): read-out: AUClast (mean ± SD); for AUC(0-inf): read-out: AUC∞ (mean ± SD); for Tmax: read-out: tmax (median [range])
Summary of the method: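 Healthy volunteers received single oral doses of SMV 100 mg, ODV 50 mg and Compound (III) 800 mg, either as separate agents (reference arm) or as fixed dose combinations with ODV spray-dried with HPMC-AS L (1/1 or 1/3 w/w) or with copovidone/poloxamers. Plasma Cmax, tmax, AUClast and AUC∞ determined for parent drugs and metabolites Compound A-1 and A-3.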

[4] = tested on: CYP (cytochrome P450 enzymes); assay: CYP inhibition in vitro
[5] = target: P-gp (Homo sapiens, UniProt P08183); details: in vitro, cited from earlier work
[6] = Phase-1 drug-drug interaction study in healthy volunteers (Compound (III) 800 mg, SMV 150 mg, Odalasvir 150 mg loading then 50 mg, once daily): plasma PK; assay type: in vivo, human; details: for AUC0-24 / Cmax: both sexes, human, plasma, oral; for AUC0-24: read-out: AUC0-24; for Cmax: read-out: Cmax
Source text: The following daily doses were employed:

[7] = Arm 1 (reference): single agents together
[8] = Arm 2 (FDC02) vs reference (Arm 1)
[9] = Arm 3 (FDC04) vs reference (Arm 1)
[10] = Arm 4 (FDC01) vs reference (Arm 1)
[11] = Group 1, Day 23 (SMV + Compound (III) + ODV)
[12] = Group 2, Day 13 (ODV + Compound (III))
[13] = Group 2, Day 23 (ODV + Compound (III) + SMV)

Sequence of P-gp (P08183 whole entry): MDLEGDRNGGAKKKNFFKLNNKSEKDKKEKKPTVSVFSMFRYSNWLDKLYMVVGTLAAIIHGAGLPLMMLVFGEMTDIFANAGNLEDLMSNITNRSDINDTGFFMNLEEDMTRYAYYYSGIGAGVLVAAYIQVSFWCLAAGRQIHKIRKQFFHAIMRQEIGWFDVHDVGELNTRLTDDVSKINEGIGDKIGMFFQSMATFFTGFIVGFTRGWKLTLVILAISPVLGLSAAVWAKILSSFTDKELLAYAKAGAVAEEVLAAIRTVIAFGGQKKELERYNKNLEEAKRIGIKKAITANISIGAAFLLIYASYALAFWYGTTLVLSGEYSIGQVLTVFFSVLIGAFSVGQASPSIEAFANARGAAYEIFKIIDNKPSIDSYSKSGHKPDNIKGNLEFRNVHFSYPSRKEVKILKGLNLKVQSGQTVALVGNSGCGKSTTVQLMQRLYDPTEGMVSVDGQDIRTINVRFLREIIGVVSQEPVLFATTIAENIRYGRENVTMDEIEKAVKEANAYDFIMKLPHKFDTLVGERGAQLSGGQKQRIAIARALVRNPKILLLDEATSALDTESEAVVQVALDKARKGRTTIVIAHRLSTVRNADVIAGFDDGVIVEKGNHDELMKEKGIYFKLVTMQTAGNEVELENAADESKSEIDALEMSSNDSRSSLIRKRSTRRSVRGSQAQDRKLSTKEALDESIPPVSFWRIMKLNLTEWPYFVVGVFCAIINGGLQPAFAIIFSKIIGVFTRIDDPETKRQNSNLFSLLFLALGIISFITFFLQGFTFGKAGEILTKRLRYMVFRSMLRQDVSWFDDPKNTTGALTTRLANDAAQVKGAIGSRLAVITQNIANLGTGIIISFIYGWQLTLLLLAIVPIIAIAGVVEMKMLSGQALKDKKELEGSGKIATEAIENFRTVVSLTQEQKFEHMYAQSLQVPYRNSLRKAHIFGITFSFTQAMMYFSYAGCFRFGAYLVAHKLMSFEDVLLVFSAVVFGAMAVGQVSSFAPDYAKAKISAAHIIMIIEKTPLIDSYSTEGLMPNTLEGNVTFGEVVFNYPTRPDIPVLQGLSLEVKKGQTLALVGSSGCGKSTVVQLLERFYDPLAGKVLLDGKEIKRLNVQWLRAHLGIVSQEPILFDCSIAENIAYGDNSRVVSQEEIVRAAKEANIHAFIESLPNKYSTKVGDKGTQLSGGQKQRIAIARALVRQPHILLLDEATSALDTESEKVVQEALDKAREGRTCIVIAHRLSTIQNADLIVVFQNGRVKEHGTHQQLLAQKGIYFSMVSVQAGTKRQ

SMILES: COC(=O)N[C@H](C(=O)N1[C@H](c2nc3cc(-c4cc5ccc4CCc4ccc(c(-c6ccc7[nH]c([C@@H]8C[C@@H]9CCCC[C@@H]9N8C(=O)[C@@H](NC(=O)OC)C(C)C)nc7c6)c4)CC5)ccc3[nH]2)C[C@@H]2CCCC[C@@H]21)C(C)C [ODV, Odalasvir]
- BCRP inhibition (in words) [1]: no inhibition
- OATP1B1 inhibition (in words) [2]: no inhibition
- t1/2term (mean ± SD) [3, 7]: 168.6 ± 21.7 h
- Least Square Means Ratio, AUClast [3, 8]: 89.66%
- Least Square Means Ratio, Cmax [3, 8]: 81.00%
- t1/2term (mean ± SD) ([3]; Arm 2: FDC02): 169.0 ± 24.5 h
- Least Square Means Ratio, AUClast [3, 9]: 182.32%
- Least Square Means Ratio, Cmax [3, 9]: 165.30%
- t1/2term (mean ± SD) ([3]; Arm 3: FDC04): 176.0 ± 29.5 h
- Least Square Means Ratio, AUClast [3, 10]: 180.14%
- Least Square Means Ratio, Cmax [3, 10]: 163.29%
- t1/2term (mean ± SD) ([3]; Arm 4: FDC01): 167.8 ± 22.4 h
- Cmax ([3]; Arm 1 (reference): single agents together, SMV 100-mg capsule, ODV 50-mg tablet, two Compound (III) 400-mg tablets): 186 ± 60.4 ng/mL
- AUC(0-t) [3, 7]: 6320 ± 2320 ng·h/mL
- AUC(0-inf) [3, 7]: 7080 ± 2140 ng·h/mL
- Tmax [3, 7]: 6 h
- Cmax ([3]; Arm 2: FDC02, SMV 100 mg + ODV 50 mg (ODV/HPMC-AS L 1/1 w/w) + Compound (III) 800 mg): 151 ± 54 ng/mL
- AUC(0-t) ([3]; Arm 2: FDC02): 5590 ± 1890 ng·h/mL
- AUC(0-inf) ([3]; Arm 2: FDC02): 7040 ± 2130 ng·h/mL
- Tmax ([3]; Arm 2: FDC02): 6 h
- Cmax ([3]; Arm 3: FDC04, SMV 100 mg + ODV 50 mg (ODV/HPMC-AS L 1/3 w/w) + Compound (III) 800 mg): 301 ± 80.5 ng/mL
- AUC(0-t) ([3]; Arm 3: FDC04): 11500 ± 4390 ng·h/mL
- AUC(0-inf) ([3]; Arm 3: FDC04): 14800 ± 5120 ng·h/mL
- Tmax ([3]; Arm 3: FDC04): 6 h
- Cmax ([3]; Arm 4: FDC01, SMV 100 mg + ODV 50 mg (copovidone and poloxamers) + Compound (III) 800 mg): 298 ± 81.7 ng/mL
- AUC(0-t) ([3]; Arm 4: FDC01): 11100 ± 3350 ng·h/mL
- AUC(0-inf) ([3]; Arm 4: FDC01): 15700 ± 3560 ng·h/mL
- Tmax ([3]; Arm 4: FDC01): 6 h
- CYP inhibition potential (in words) ([4]; on any CYP): does not inhibit
- inhibition of any CYP ([4]; up to 10 μM): no inhibition
- P-gp inhibition (in words) [5]: moderate inhibition
- IC50 ([5]; read-out: Pgp inhibition IC50): 9.5 µM
- increase of exposure, effect of the three Compounds ([6]; Compound (III) + SMV + ODV co-administered vs given alone): 1.5 fold
- AUC0-24 ([6]; Group 1, Day 20 (ODV + SMV)): 10800 ng·h/mL
- Cmax ([6]; Group 1, Day 20 (ODV + SMV)): 649 ng/mL
- AUC0-24 [6, 11]: 12800 ng·h/mL
- Cmax [6, 11]: 744 ng/mL
- AUC0-24 ([6]; Group 2, Day 10 (ODV alone)): 8720 ng·h/mL
- Cmax ([6]; Group 2, Day 10 (ODV alone)): 582 ng/mL
- AUC0-24 [6, 12]: 10200 ng·h/mL
- Cmax [6, 12]: 669 ng/mL
- AUC0-24 ([6]; Group 2, Day 20 (ODV + SMV)): 14000 ng·h/mL
- Cmax ([6]; Group 2, Day 20 (ODV + SMV)): 770 ng/mL
- AUC0-24 [6, 13]: 14800 ng·h/mL
- Cmax [6, 13]: 780 ng/mL
- effect of Compound (III) on exposure / bioavailability ([6]; co-administered with Compound (III)): no apparent effect; also recorded: does not alter
- increase of exposure caused by SMV ([6]; co-administered with SMV vs without): 1.6 fold
